{"source": "patent US20150328269A1", "about": "“PREPARATION FOR RADIO PROTECTION” (LYCORED LTD., priority 2012, published 2015)", "key": {"[1]": {"assay": "Fe++-induced oxidation of liposomes (MDA/TBA read-out)", "type": "biochemical, hen", "settings": "for Protection against Fe++-induced oxidation in %: 50 μM Fe++, 30 minutes, room temperature", "source_text": "(§1) The biologic membranes play the most important role in cell vital activity. The high sensibility of lipids and phospholipids, which are the main structural components of biomembranes, as to oxidative stress, including those caused by irradiation, is the consequence of the high content of unsaturated fatty acids. The liposomes being obtained from phospholipids of hen's egg yolk were used as a model of the biomembranes. The phospholipids are able to form liposome emulsions in water; this allows studying in model experiments the radioprotective and antioxidant properties of various water-soluble and water-insoluble compounds, including water-insoluble phytoene as well. To obtain the liposomes, 20 mg of the phospholipids, being dissolved in chloroform, were entered into a conical vial and dried in vacuum. Then 2 ml of a saline solution containing 0.15 M NaCl, 0.005 M KCl, 0.0012 M KH2PO4, 0.0012 M Na2HPO4 at pH 7.4 was added to the dried sample. The mixture has been shaken, input into an ultrasonic bath for 30 seconds, and then the total volume was increased up to 10 ml, stirred, treated with ultrasound, and as the result the liposome suspension with the phospholipid concentration of 2 mg/ml was received. […] Optical density of the colored TBA products was calculated by the optical density data, considering the molar extinction coefficient at 532 nm equals to 156,000 mol^-1·cm^-1. […] Taking as 100% the level of the MDA increment at the induced liposome oxidation above spontaneous phospholipids oxidation in the absence of phytoene, and taking into account the fact that the presence of phytoene in the liposomes can modify the level of the spontaneous oxidation, the protection efficacy (PE)OK in the […] of the induced liposome oxidation was calculated by the formula: (PE)OK=(CPOK-CPK)·100/(COK-CK), in which CPK , CPOK are the MDA concentrations in the liposomes with phytoene before and after the liposome induced oxidation respectively; CK, COK (are the MDA concentrations in the control liposomes (without phytoene) before and after the liposome induced oxidation respectively."}, "[2]": {"assay": "Radiation-induced oxidation of liposomes (MDA/TBA read-out)", "type": "biochemical, hen", "settings": "for Radioprotection in %: 500 Gy Co60 γ-quanta, 84.8 Gy/min, liposomes 2 mg/ml phospholipids in saline solution", "source_text": "as §1"}}, "data": [{"smiles": "CC(C)=CCC/C(C)=C/CC/C(C)=C/CC/C(C)=C/C=C/C=C(\\C)CC/C=C(\\C)CC/C=C(\\C)CCC=C(C)C", "note": "(stereo in doubt) [phytoene]", "values": [{"measurement": "Protection against Fe++-induced oxidation in %", "setting": "[1]; phytoene:phospholipid 1:10", "value": "50.9 ± 6.6", "unit": "%"}, {"measurement": "Protection against Fe++-induced oxidation in %", "setting": "[1]; phytoene:phospholipid 1:100", "value": "18.7 ± 11.5", "unit": "%"}, {"measurement": "Protection of liposomes against oxidative stress induced with ferrous iron ions (in words)", "setting": "[1]; summary statement", "value": "protects the liposomes against the oxidative stress"}, {"measurement": "Radioprotection in %", "setting": "[2]; phytoene:phospholipid 1:10", "value": "62.0 ± 10.4", "unit": "%"}, {"measurement": "Radioprotection in %", "setting": "[2]; phytoene:phospholipid 1:100", "value": "37.2 ± 5.2", "unit": "%"}, {"measurement": "Protection of liposomes against oxidative stress induced by the radiation (in words)", "setting": "[2]; summary statement", "value": "protects the liposomes against the oxidative stress"}]}]}
